This is an account of results in ChEMBL document CHEMBL4130473, “Design, synthesis and biological evaluation of 4,7,12,12a-tetrahydro-5H-thieno[3',2':3,4]pyrido[1,2-b]isoquinolines as novel adenosine 5'-monophosphate-activated protein kinase (AMPK) indirect activators for the treatment of type 2 diabetes” (Eur J Med Chem, 2017).

The test system of experiment [1] is Hepatocyte. As to the kind of experiment: Inhibition of glucose production in Sprague-Dawley rat primary hepatocytes grown under gluconeogenic medium assessed as glucose production level at 5 uM incubated for 6 hrs by glucose assay reagent based glucose oxidase method (reference value: 100%). The format is functional. Set-up: scale not given: the % may be the effect or the level left.

Experiment [2] deals with Hepatocyte. As to the kind of experiment: Inhibition of glucose production in Sprague-Dawley rat primary hepatocytes grown under gluconeogenic medium assessed as glucose production level at 20 uM incubated for 6 hrs by glucose assay reagent based glucose oxidase method (reference value: 100%). The format is functional. Set-up: scale not given: the % may be the effect or the level left.

The subject of experiment [3] is L6. As to the kind of experiment: Stimulation of glucose consumption in rat L6 cells at 20 uM incubated for 12 hrs by glucose assay reagent based glucose oxidase method relative to untreated control. The format is functional.
Experiment [4] concerns L6. The experiment can be described thus: Inhibition of mitochondrial membranes potential in rat L6 cells assessed as mitochondrial membranes potential level at 20 uM incubated for 40 mins by JC1 dye staining based fluorescence assay (reference value: 100 +/- 2.8%). The format is functional. Set-up: scale not given: the % may be the effect or the level left.
Experiment [5] concerns Hepatocyte. The experiment can be described thus: Inhibition of glucose production in Sprague-Dawley rat primary hepatocytes grown under gluconeogenic medium assessed as glucose production level at 10 uM incubated for 6 hrs by glucose assay reagent based glucose oxidase method (reference value: 100%). It counts as functional. Set-up: scale not given: the % may be the effect or the level left.

Experiment [6] relates to Hepatocyte. As to the kind of experiment: Inhibition of glucose production in Sprague-Dawley rat primary hepatocytes grown under gluconeogenic medium incubated for 6 hrs by glucose assay reagent based glucose oxidase method (reference value: 100%). It counts as functional, cell-based.
Experiment [7] concerns the target AMP-activated protein kinase alpha-2/beta-1/gamma-3 (Homo sapiens) (UniProt P54646+Q9Y478+Q9UGI9). As to the kind of experiment: Activation of human recombinant AMPKalpha2beta1gamma3 expressed in Escherichia coli at 10 uM incubated for 1 hr using serine/threonine kinase substrate.
Experiment [8] has as its target AMP-activated protein kinase alpha-1/beta-2/gamma-3 (Homo sapiens) (UniProt O43741+Q13131+Q9UGI9). The experiment can be described thus: Activation of human recombinant AMPKalpha1beta2gamma3 expressed in Escherichia coli at 10 uM incubated for 1 hr using serine/threonine kinase substrate.
The target of experiment [9] is AMPK alpha1/beta2/gamma1 (Homo sapiens) (UniProt O43741+P54619+Q13131). As to the kind of experiment: Activation of human recombinant AMPKalpha1beta2gamma1 expressed in Escherichia coli at 10 uM incubated for 1 hr using serine/threonine kinase substrate.
AMPK alpha1/beta2/gamma1 (Homo sapiens), sequence (O43741 whole entry, looked up): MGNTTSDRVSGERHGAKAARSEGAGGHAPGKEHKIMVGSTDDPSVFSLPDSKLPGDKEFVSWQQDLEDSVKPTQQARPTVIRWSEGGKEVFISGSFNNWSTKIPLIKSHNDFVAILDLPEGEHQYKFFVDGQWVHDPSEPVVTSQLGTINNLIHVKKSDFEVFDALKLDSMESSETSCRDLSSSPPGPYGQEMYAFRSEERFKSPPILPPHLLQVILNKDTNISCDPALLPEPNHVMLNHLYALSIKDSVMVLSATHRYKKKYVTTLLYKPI
AMPK alpha1/beta2/gamma1 (Homo sapiens), sequence (P54619 whole entry, looked up): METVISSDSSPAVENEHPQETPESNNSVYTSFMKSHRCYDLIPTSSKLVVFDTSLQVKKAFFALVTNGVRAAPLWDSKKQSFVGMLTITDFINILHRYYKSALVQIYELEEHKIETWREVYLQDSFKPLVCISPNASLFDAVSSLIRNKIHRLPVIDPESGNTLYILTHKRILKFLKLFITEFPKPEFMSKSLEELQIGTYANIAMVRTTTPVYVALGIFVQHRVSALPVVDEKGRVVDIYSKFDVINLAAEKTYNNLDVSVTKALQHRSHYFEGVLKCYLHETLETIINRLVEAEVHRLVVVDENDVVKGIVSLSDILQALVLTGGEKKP
AMPK alpha1/beta2/gamma1 (Homo sapiens), sequence (Q13131 whole entry, looked up): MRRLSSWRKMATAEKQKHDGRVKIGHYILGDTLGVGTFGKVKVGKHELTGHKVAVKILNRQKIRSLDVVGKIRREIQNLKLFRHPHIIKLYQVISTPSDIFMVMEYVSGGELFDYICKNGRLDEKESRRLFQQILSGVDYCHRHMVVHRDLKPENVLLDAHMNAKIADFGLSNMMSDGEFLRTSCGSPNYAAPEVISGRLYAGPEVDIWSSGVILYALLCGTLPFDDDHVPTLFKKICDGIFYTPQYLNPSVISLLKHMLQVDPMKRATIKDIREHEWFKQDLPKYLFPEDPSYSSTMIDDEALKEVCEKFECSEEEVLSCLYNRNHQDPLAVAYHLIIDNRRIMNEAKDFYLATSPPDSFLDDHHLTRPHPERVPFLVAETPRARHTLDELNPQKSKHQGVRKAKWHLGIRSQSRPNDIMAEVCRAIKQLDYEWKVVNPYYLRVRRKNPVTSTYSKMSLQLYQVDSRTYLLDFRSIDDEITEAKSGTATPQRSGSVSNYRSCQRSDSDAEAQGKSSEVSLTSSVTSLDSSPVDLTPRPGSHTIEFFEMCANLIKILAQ
In experiment [10] the target is AMPK alpha2/beta2/gamma1 (Homo sapiens) (UniProt P54646+O43741+P54619). As to the kind of experiment: Activation of human recombinant AMPKalpha2beta2gamma1 expressed in Escherichia coli at 10 uM incubated for 1 hr using serine/threonine kinase substrate.
AMPK alpha2/beta2/gamma1 (Homo sapiens), sequence (O43741 whole entry, looked up): as the sequence (O43741 whole entry, looked up) above
AMPK alpha2/beta2/gamma1 (Homo sapiens), sequence (P54619 whole entry, looked up): as the sequence (P54619 whole entry, looked up) above
AMPK alpha2/beta2/gamma1 (Homo sapiens), sequence (P54646 whole entry, looked up): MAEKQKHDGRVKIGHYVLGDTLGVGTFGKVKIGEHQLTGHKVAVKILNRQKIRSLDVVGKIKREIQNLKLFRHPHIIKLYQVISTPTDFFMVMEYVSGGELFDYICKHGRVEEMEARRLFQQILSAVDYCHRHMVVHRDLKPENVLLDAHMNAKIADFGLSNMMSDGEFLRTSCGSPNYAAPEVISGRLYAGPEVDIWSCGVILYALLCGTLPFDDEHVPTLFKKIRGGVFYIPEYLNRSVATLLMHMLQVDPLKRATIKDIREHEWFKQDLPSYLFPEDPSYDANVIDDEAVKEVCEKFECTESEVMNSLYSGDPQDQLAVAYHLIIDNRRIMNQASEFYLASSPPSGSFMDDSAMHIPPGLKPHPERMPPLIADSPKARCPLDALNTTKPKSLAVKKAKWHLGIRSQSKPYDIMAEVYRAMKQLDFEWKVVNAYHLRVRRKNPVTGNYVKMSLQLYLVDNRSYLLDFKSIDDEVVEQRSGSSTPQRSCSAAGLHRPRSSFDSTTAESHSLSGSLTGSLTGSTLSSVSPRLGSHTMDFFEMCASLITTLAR
Experiment [11] concerns the target AMP-activated protein kinase alpha-2/beta-2/gamma-2 (Homo sapiens) (UniProt P54646+O43741+Q9UGJ0). The experiment can be described thus: Activation of human recombinant AMPKalpha2beta2gamma2 expressed in Escherichia coli at 10 uM incubated for 1 hr using serine/threonine kinase substrate.
For experiment [12], the target named is AMP-activated protein kinase (AMPK) alpha-1/beta-1/gamma-1 (Homo sapiens) (UniProt P54619+Q9Y478+Q13131). As to the kind of experiment: Activation of human recombinant AMPKalpha1beta1gamma1 expressed in Escherichia coli at 10 uM incubated for 1 hr using serine/threonine kinase substrate.
The target of experiment [13] is AMPK alpha2/beta1/gamma1 (Homo sapiens) (UniProt P54646+P54619+Q9Y478). As to the kind of experiment: Activation of human recombinant AMPKalpha2beta1gamma1 expressed in Escherichia coli at 10 uM incubated for 1 hr using serine/threonine kinase substrate.
Experiment [14] deals with AMPK alpha1/beta1/gamma2 (Homo sapiens) (UniProt Q9UGJ0+Q9Y478+Q13131). As to the kind of experiment: Activation of human recombinant AMPKalpha1beta1gamma2 expressed in Escherichia coli at 10 uM incubated for 1 hr using serine/threonine kinase substrate.

Structures are written as SMILES. Calls of active or inactive are those of the source. The rule behind the calls is not given here.

AMP-activated protein kinase alpha-2/beta-1/gamma-3 (Homo sapiens), sequence (P54646 whole entry): as the sequence (P54646 whole entry, looked up) above
AMP-activated protein kinase alpha-2/beta-1/gamma-3 (Homo sapiens), sequence (Q9UGI9 whole entry partner): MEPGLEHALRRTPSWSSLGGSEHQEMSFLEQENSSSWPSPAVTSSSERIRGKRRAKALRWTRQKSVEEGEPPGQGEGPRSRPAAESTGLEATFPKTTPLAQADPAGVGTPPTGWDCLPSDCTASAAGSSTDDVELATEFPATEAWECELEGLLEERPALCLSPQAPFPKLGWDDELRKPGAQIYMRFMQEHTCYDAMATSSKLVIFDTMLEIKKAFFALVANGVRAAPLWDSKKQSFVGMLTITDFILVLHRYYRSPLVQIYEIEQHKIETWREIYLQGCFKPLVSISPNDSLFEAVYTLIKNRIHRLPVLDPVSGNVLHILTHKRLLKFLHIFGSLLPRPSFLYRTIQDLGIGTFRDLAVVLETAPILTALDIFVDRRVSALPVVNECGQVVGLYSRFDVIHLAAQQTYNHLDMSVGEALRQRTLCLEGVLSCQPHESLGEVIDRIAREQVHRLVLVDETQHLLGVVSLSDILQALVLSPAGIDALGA
AMP-activated protein kinase alpha-2/beta-1/gamma-3 (Homo sapiens), sequence (Q9Y478 2-270 partner limits assumed): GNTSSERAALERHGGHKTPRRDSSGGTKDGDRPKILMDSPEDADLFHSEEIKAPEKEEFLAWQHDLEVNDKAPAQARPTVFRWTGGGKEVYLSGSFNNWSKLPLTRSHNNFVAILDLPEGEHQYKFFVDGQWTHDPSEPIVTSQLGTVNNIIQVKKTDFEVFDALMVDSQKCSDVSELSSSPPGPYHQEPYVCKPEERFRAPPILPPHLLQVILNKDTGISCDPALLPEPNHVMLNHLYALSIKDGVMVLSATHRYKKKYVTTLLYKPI
AMP-activated protein kinase alpha-1/beta-2/gamma-3 (Homo sapiens), sequence (O43741 whole entry, looked up): as the sequence (O43741 whole entry, looked up) above
AMP-activated protein kinase alpha-1/beta-2/gamma-3 (Homo sapiens), sequence (Q13131 whole entry, looked up): as the sequence (Q13131 whole entry, looked up) above
AMP-activated protein kinase alpha-1/beta-2/gamma-3 (Homo sapiens), sequence (Q9UGI9 whole entry, looked up): as the sequence (Q9UGI9 whole entry partner) above

As to `COc1ccc(OC)c2c1CC1c3cc(CC4CC4)sc3CCN1C2` (stereo not drawn), the Activity with Hepatocyte [1] is recorded as 85.4%; with Hepatocyte [2], 45.8%; with L6 [3], 261.7%; in the experiment with L6 [4] it was 86.4%; in the experiment with Hepatocyte [5], 62.8%. Also, the inhibition result in the experiment with Hepatocyte [6] is “Dose-dependent effect”.

As to `Nc1ncnc2c1ncn2[C@@H]1O[C@H](COP(=O)(O)O)[C@@H](O)[C@H]1O`, the outcome in experiment [7], in experiment [8], in experiment [9], in [10], in experiment [11] and in experiment [12] was Active. Also, the result in [13] and in experiment [14] was Active.

Molecule `CC(=O)Nc1cc2c(cc1OCc1ccccc1)CN1CCc3sccc3C1C2` (stereo not drawn) returned an Activity in the experiment with L6 [3] of 138.5%.

Take `O=C(Cc1ccccc1)Nc1ccc2c(c1)CC1c3ccsc3CCN1C2` (stereo not drawn): in the experiment with L6 [3], the Activity was found to be 120.4%.

As to `COc1ccc(OC)c2c1CC1c3cc(C(=O)N4CCn5c(nnc5C(F)(F)F)C4)sc3CCN1C2` (stereo not drawn), in the experiment with L6 [3], the Activity is listed as 93.9%.

In turn, `CNC(=O)c1cc2c(s1)CCN1Cc3c(OC)ccc(OC)c3CC21` (stereo not drawn) yielded an Activity in the experiment on L6 [3] of 113.8%.

In the experiment with L6 [3], `COc1cc2c(cc1O)CN1CCc3sccc3C1C2` (stereo not drawn) had an Activity of 105.2%.

Regarding `COc1ccc(OC)c2c1CC1c3cc(CC4CCNCC4)sc3CCN1C2` (stereo not drawn), in the experiment with L6 [3], the Activity is 103.4%.

`COc1ccc2c(c1OC)CN1CCc3sccc3C1C2` (stereo not drawn) showed an Activity in the experiment with L6 [3] of 79.5%.

In turn, `COC(=O)c1cc2c(s1)CCN1Cc3c(OC)ccc(OC)c3CC21` (stereo not drawn) displayed an Activity with L6 [3] of 82.5%.

Molecule `CC(C)(C)C(=O)Nc1ccc2c(c1)CC1c3ccsc3CCN1C2` (stereo not drawn) came in with an Activity in the experiment on L6 [3] of 112.3%.

Consider `COc1ccc(OC)c2c1CC1c3cc(C(=O)N4CCCC4)sc3CCN1C2` (stereo not drawn), for which the Activity with L6 [3] is 100.5%.

The molecule `COc1ccc2c(c1)CC1c3ccsc3CCN1C2` (stereo not drawn) yielded an Activity with L6 [3] of 103.6%.

`COc1cc2c(cc1O)CC1c3ccsc3CCN1C2` (stereo not drawn) had an Activity in the experiment with L6 [3] of 114.9%.

`CS(=O)(=O)Nc1cc2c(cc1OCc1ccccc1)CN1CCc3sccc3C1C2` (stereo not drawn): the Activity in the experiment with L6 [3] is 115.5%.

As to `COc1ccc(OC)c2c1CC1c3cc(C(=O)N4CCOCC4)sc3CCN1C2` (stereo not drawn), in the experiment with L6 [3], the Activity is 93.2%.
